In US20030186947A1, “Compounds having activity as inhibitors of cytochrome P450RAI” (priority 2000, published 2003):

Tests used:
Test in all cases: chimeric receptor transactivation assay
Assay type in all cases: cell-based
Details in all cases: value in parentheses
RARβ = target: T1, RARβ (Homo sapiens, UniProt P10826)
T1 sequence (P10826 183-417 limits assumed): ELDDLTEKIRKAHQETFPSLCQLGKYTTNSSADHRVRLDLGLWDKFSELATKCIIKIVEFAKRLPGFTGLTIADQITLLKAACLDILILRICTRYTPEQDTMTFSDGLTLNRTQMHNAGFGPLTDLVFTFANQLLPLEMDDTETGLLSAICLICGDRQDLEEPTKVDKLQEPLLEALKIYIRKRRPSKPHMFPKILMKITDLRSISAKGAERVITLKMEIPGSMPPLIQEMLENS
From the text: (§1) Assays described below measure the ability of a compound to bind to, and/or activate various retinoid receptor subtypes. When in these assays a compound binds to a given receptor subtype and activates the transcription of a reporter gene through that subtype, then the compound is considered an agonist of that receptor subtype. […] In the below described assays the ability of the compounds to bind to RARα, RARβ, RARγ, RXRα, RXRβ and RXRγ receptors, and the ability or inability of the compounds to activate transcription of a reporter gene through these receptor subtypes can be tested.
(§2) As far as specific assays are concerned, a chimeric receptor transactivation assay which tests for agonist-like activity in the RARα, RARβ, and RARγ, receptor subtypes, and which is based on work published by Feigner P. L. and Holm M (1989) Focus, 112 is described in detail in U.S. Pat. No. 5,455,265. The specification of U.S. Pat. No. 5,455,265 is hereby expressly incorporated by reference.
A holoreceptor transactivation assay and a ligand binding assay which measure the antagonist/agonist like activity of the compounds of the invention, or their ability to bind to the several retinoid receptor subtypes, respectively, are described in published PCT Application No. WO WO93/11755 (particularly on pages 30-33 and 37-41) published on Jun. 24, 1993, the specification of which is also incorporated herein by reference. […] The results obtained in this assay are expressed in EC50 numbers, as they are also in the chimeric receptor transactivation assay. The results of ligand binding assay are expressed in Kd numbers. (See Cheng et al. Biochemical Pharmacology Vol. 22 pp 3099-3108, expressly incorporated herein by reference.)

RARγ = target: T2, RARγ (Homo sapiens, UniProt P13631)
T2 sequence (P13631 185-419 limits assumed): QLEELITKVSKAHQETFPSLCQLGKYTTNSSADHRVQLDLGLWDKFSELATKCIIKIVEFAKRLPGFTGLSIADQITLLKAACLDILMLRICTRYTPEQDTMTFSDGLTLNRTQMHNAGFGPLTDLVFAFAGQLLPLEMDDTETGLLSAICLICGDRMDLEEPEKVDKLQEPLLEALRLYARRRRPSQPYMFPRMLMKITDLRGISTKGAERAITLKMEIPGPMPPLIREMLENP
From the text: as §1
as §2, with “reference. The numeric results obtained with several preferred compounds of this invention in this assay are shown below in Table 1.” for “reference.”
(§3) A holoreceptor transactivation assay and a ligand binding assay which measure the antagonist/agonist like activity of the compounds of the invention, or their ability to bind to the several retinoid receptor subtypes, respectively, are described in published PCT Application No. WO WO93/11755 (particularly on pages 30-33 and 37-41) published on Jun. 24, 1993, the specification of which is also incorporated herein by reference. A detailed experimental procedure for holoreceptor transactivations has been described by Heyman et al. Cell 68, 397-406, (1992); Allegretto et al. J. Biol. Chem. 268, 26625-26633, and Mangelsdorf et al. The Retinoids: Biology, Chemistry and Medicine, pp 319-349, Raven Press Ltd., New York, which are expressly incorporated herein by reference. The results obtained in this assay are expressed in EC50 numbers, as they are also in the chimeric receptor transactivation assay. The results of ligand binding assay are expressed in Kd numbers. (See Cheng et al. Biochemical Pharmacology Vol. 22 pp 3099-3108, expressly incorporated herein by reference.)

RARα = target: T3, RARα (Homo sapiens, UniProt P10276)
T3 sequence (P10276 183-417 limits assumed): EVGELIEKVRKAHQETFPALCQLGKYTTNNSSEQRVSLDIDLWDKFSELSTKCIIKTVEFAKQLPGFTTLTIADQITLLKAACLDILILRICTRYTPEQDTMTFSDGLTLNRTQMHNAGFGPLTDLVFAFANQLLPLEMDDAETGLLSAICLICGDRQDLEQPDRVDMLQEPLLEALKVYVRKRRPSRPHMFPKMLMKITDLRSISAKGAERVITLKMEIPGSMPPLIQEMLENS
From the text: as §1
as §2, with “reference. The numeric results obtained with several preferred compounds of this invention in this assay are shown below in Table 1.” for “reference.”
as §3

RAR (EFFICACY) β (RARβ) | RAR (EFFICACY) γ (RARγ) | RAR (EFFICACY) α (RARα) | Compound
(39) | (24) | – | CC(C)OC1(c2ccc(C#Cc3ccc(C(=O)O)cc3)cc2)CC1 [Compound 73, 4-[4-(1-Isopropoxycyclopropyl)-phenylethynyl]-benzoic acid]
(77) | (65) | (60) | Cc1cc(C#Cc2ccc(C(=O)O)cc2)ccc1C1(OC(C)C)CC1 [Compound 85, 4-[4-(1-Isopropoxycyclopropyl)-3-methyl-phenylethynyl]-benzoic acid]
(37) | – | – | O=C(O)c1ccc(C#Cc2ccc(C3(NCc4ccccc4)CC3)cc2)cc1 [Compound 112, 4-[4-(1-Benzylamino-cyclopropyl)-phenylethynyl]-benzoic acid]
(36) | (10) | (15) | CCCNC1(c2ccc(C#Cc3ccc(C(=O)O)cc3)cc2)CC1 [Compound 108, 4-[4-(1-Propylamino-cyclopropyl)-phenylethynyl]-benzoic acid]
(50) | (31) | (10) | COC1(c2ccc(C#Cc3ccc(C(=O)O)cc3)cc2)CC1 [Compound 69, 4-[4-(1-Methoxycyclopropyl)-phenylethynyl]-benzoic acid]
(44) | (42) | – | CCCN(CCC)C1(c2ccc(C#Cc3ccc(C(=O)O)cc3)cc2)CC1 [Compound 110, 4-[4-(1-Dipropylamino-cyclopropyl)-phenylethynyl]-benzoic acid]

Second part, the molecule before the results:

Compound | RAR (EFFICACY) β (RARβ) | RAR (EFFICACY) γ (RARγ) | RAR (EFFICACY) α (RARα)
CN(C1CC1)C1CCC(C)(C)c2cc(C#Cc3ccc(C(=O)O)c(F)c3)ccc21 (centres unmarked) [Compound 13, 4-[5-(Cyclopropyl-methyl-amino)-8,8-dimethyl-5 6,7,8-tetrahydro-naphthalene-2-yl-ethynyl]-2-fluoro benzoic acid] | (6.6) | (9) | –
CN(C1CC1)C1CCC(C)(C)c2cc(C#Cc3ccc(CC(=O)O)cc3)ccc21 (centres unmarked) [Compound 8, 4-[(5-(Cyclopropyl-methyl-amino)-8,8-dimethyl-5,6,7,8-tetrahydro-naphthalene-2-yl-ethynyl)-phenyl]-acetic acid] | (96) | – | –
CCc1cc(C#Cc2ccc(C(=O)O)cc2)ccc1C1(OCc2ccccc2)CC1 [Compound 93, 4-[4-(1-Benzyloxycyclopropyl)-3-ethyl-phenylethynyl]-benzoic acid] | (39) | (55) | (114)
CN(C1CC1)C1CCC(C)(C)c2cc(C#Cc3ccc(C(=O)O)cc3)ccc21 (centres unmarked) [Compound 3, 4-[(5-Cyclopropyl-methyl-amino)-8,8-dimethyl-5,6,7,8-tetrahydro-naphthalene-2yl-ethynyl]-benzoic acid] | (54) | (52) | (28)
Cc1cc(C#Cc2ccc(C(=O)O)cc2)ccc1C1(OCC(C)(C)C)CC1 [Compound 89, 4-[4-[1-(2,2-Dimethylpropyloxy)-cyclopropyl]-3-methyl-phenylethynyl]-benzoic acid] | (50) | (46) | (20)
CC1(C)CCC(=O)c2ccc(C#Cc3ccc(CC(=O)O)cc3)cc21 [Compound 5, 4-[(8,8-Dimethyl-5-oxo-5,6,7,8-tetrahydro-naphthalene-2-yl-ethynyl)-phenyl]-acetic acid] | (36) | – | –
Cc1cc(C#Cc2ccc(C(=O)O)cc2)ccc1C1(OCc2ccccc2)CC1 [Compound 81, 4-[4-(l -Benzyloxycyclopropyl)-3-methyl-phenylethynyl]-benzoic acid] | (80) | (67) | –
CC1(C)CC2(CC2)Oc2ccc(C#Cc3ccc(C(=O)O)cc3)cc21 [Compound 40, Benzoic acid 4-[(3,4-dihydro-4,4-dimethylspiro[2H-1-benzopyran-2,1′-cyclopropane]-6-yl)ethynyl]-] | (126) | (140) | (207)
CC1(C)CCC(=O)c2ccc(C#Cc3ccc(C(=O)O)c(F)c3)cc21 [Compound 10, 2-Fluoro-4-(8,8-dimethyl-5-oxo-5,6,7,8-tetrahydro-naphthalen-2yl-ethynyl)-benzoic acid] | (86) | (94) | (146)
CC1(C)CC2(CC2)Oc2ccc(C#Cc3ccc(C(=O)O)c(F)c3)cc21 [Compound 44, 2-Fluoro-benzoic acid, 4-[(3,4-dihydro-4,4-dimethylspiro[2H-1-benzopyran-2,1′-cyclopropane]-6-yl)ethynyl]-] | (100) | (116) | (138)
